“And” between values parts separate entries of the source, which are not always exact repeats. Equal values may be shown once.
How the values were obtained:
[1] = system: hPXR mice; assay: DSS-induced acute colitis in hPXR mice; assay type: in vivo, mouse
Experimental: For these studies, 7‐ to 8‐week‐old female (DeVoss & Diehl, 2014) hPXR (mice expressing the human PXR gene) and pxr ^−/− mice (C57BL/6 background) were bred and each genotype was separated into two treatment groups using a random allocation method via coin toss—(i) n = 3 control (0.8% DMSO in 100 μl drinking water) and (ii) n = 3 FKK6 (200 μM (0.4 mg/kg/day) in 0.8% DMSO in 100 μl drinking water) administered once per day via oral gavage, and via intrarectal gavage for a total of 10 consecutive days The dose was chosen based on the extrapolation of the total dose delivered over 10 days to mice (~ 4 mg/kg), which is equivalent to that delivered to mice for determining target gene expression over 3–5 doses (3–5 mg/kg). […] Fecal pellets were collected prior to the initiation of the treatment protocol. All mice were starved overnight (12 h) to allow for smooth intrarectal delivery; however, the mice were allowed to feed ad libitum during the day. After 10 days, the mice were sacrificed and organs/tissues/feces harvested for further study. Prior to necropsy, mice were administered FITC‐dextran, and mouse serum was collected for the FITC‐dextran assay as previously described (Vetizou et al, 2015). The experimenter was not blinded to treatment allocation; however, the pathologist (KS) evaluating histologic scores was blinded to treatment allocation. All studies were approved by the Institute of Animal Studies at the Albert Einstein College of Medicine, INC (IACUC # 20160706 and preceding protocols). Colitis scoring was performed as previously published, and post‐examination masking was conducted (Kim et al, 2012; Meyerholz & Beck, 2018).
For RT–qPCR of colon tissue for cytokine expression data, new experiments were conducted with 3% DSS and the identical FKK6 dose (n = 3 mice/group) and scheduled as above. RT–qPCR was performed using PowerUp™ SYBR® Green Master Mix (A25741, Thermo Fisher Scientific) and primers specific for IL‐10, TNF‐α, TNFR2, and […]. Each target gene was analyzed in quadruplicate. Normalizing controls included GAPDH (used to illustrate data) and TBP.

[2] = molecular target: T1, pCAF (Homo sapiens, UniProt Q92831); assay: Histone acetyltransferase assay pCAF (Reaction Biology); assay type: biochemical; conditions: substrate Histone H3, replicates
T1 construct: purchased Reaction Biology Corp; host or cells: E. coli
Experimental: The following […] assays (HDAC, SIRT1, PRMT1, PARP1, p300, pCAF) were performed by Reaction Biology Corp. FKK6 was screened at a single concentration of 10 μM in duplicate in two separate experiments. The appropriate controls for the individual assays are published. The overall […]
enzyme activity in the assay is reported as a % activity in DMSO control wells. Control IC50 […]
Briefly, for the Sirtuin (SIRT1) assay, human SIRT1 (GenBank
Accession No. NM012238) full -length N-terminal His-tag protein (MW 83.2 kDa) was purified after expression in E. coli. The reaction buffer was freshly prepared and constituted 50 mM Tris-HC l ( p H 8), 137 mM NaCl, 2.7 mM KCl, 1 mM MgCl2, and just before use, 1 mg/mL BSA and 1% DMSO was added. The substrate was a fluorogenic acetylated peptide of p53 residues 379-382 (RHKK (Ac)- AM C) . […]
8), 50 mM NaCl, 0.1 mM EDTA, 1 mM DTT, 1 mM PMSF, and 1% DMSO. […] The radioactivity in mixture is detected on washed filter paper using a scintillation counter. […]
Reader (Perkin Elmer) (Ex 360 nm/ Em 460 nm). For all enzyme activity assays, the percentage of enzyme activity (relative to DMSO controls) and IC50 values were calculated using GraphPad Prism 4 program (sigmoidal dose response equations). […]

[3] = FKK6 200 μM, day 10, individual mice

T1 sequence (Q92831 492-658): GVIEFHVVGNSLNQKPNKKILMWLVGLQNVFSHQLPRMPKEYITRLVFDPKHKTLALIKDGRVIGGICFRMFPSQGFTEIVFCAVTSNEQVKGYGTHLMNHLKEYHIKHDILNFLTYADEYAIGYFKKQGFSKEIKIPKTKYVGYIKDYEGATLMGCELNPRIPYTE

C#CCC(O)(c1ccncc1)c1cc2ccccc2n1S(=O)(=O)c1ccccc1 (centres unmarked) [FKK6]
colon tissue IL-10 mRNA ([1]; 3% DSS, FKK6 vs controls): significant increase
colon tissue TNF-α mRNA ([1]; 3% DSS, FKK6 vs controls): decrease
colon tissue TNFR2 mRNA ([1]; 3% DSS, FKK6 vs controls): decrease
colon tissue IL-17f mRNA ([1]; 3% DSS, FKK6 vs vehicle): significant reduction
fecal lipocalin 2 ([1]; FKK6 200 μM): only a trend in the reduction
serum FITC-dextran ([1]; FKK6 200 μM): only a trend in the reduction
% weight loss from baseline (day 1 vs. day 10) ([1]; FKK6 200 μM oral gavage plus intrarectal, once daily 10 days, individual mice): significantly reduced weight loss and 20% and 16%
colon length [1, 3]: increased colon length and 5.2 cm and 5.6 cm and 5.1 cm
inflammation score [1, 3]: substantially decreased and 3 and 5
% Enzyme Activity to DMSO controls ([2]; 10 μM): 101.68% and 104.61% and 104.47%
remaining activity at 10 µM ([2]; read-out: % Enzyme Activity to DMSO controls): 100%
